Experimental findings from patent US20100210649A1, “PYRIDAZINONES AND FURAN-CONTAINING COMPOUNDS” (Sloan-Kettering Institute for Cancer Research, priority 2006, published 2010) are described below.

Read-outs that look alike come from different tables or passages of the source.

In one experiment the test system is H2444. Description: Dose response study (Alamar Blue), H2444. Format: cell-based. The settings on record: Homo sapiens, NCI-H2444; H2444; 12 point doubling dilution 10 uM to 5 nM; 48 h treatment, alamar blue additional 48 h; read-out: IC50 H2444. For orientation: The colour change of resazurin is a common sign of viable cells or microbes.
In the next experiment the test system is A549. In words: Dose response study (Alamar Blue), A549. Format: cell-based. The settings on record: Homo sapiens; A549; 12 point doubling dilution 10 uM to 5 nM; 48 h treatment, alamar blue additional 48 h; read-out: IC50 A549.
In a further experiment the test system is H820. Description: Dose response study (Alamar Blue), H820. It counts as cell-based. The settings on record: Homo sapiens, NCI-H820; H820; 12 point doubling dilution 10 uM to 5 nM; 48 h treatment, alamar blue additional 48 h; read-out: IC50 H820.
The next experiment deals with H1734. Description: Non Small Cell Lung Cancer proliferation assay (Alamar Blue reduction), H1734. Format: cell-based, human. The settings on record: Homo sapiens, NCI-H1734. The gist of the method:
(§1)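 Dose-response run: cells were counted, dispensed at 250 cells/well onto compound, incubated 48 hours at 37° C, then incubated with Alamar Blue for an additional 48 hours before fluorescence measurement. All wells held 1% DMSO final.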

For a further experiment, the system named is H1118. Description: Non Small Cell Lung Cancer proliferation assay (Alamar Blue reduction), H1118. The settings on record: Homo sapiens; H1118; 12 point doubling dilution 10 uM to 5 nM; 48 h treatment, alamar blue additional 48 h; read-out: IC50 H1118. It counts as cell-based.
Another experiment relates to H1650. In words: Non Small Cell Lung Cancer proliferation assay (Alamar Blue reduction), H1650. Format: cell-based, human. The settings on record: Homo sapiens. In a few lines: as §1
A further experiment has as its system H2030. Description: Non Small Cell Lung Cancer proliferation assay (Alamar Blue reduction), H2030. Format: cell-based, human. As to conditions: Homo sapiens. The gist of the method:
as §1

Take `Cc1nc2cc(-n3ncc(Cl)c(Cl)c3=O)ccc2s1` [compound 267067]: the IC50 in the experiment on H2444 is 6.92 µM; in the experiment with A549, over 10 µM; in the experiment on H820 it was 8.25 µM; in the experiment on H1734 (H1734, 12 point doubling dilution 10 uM to 5 nM, 48 h treatment, alamar blue additional 48 h, read-out: IC50 H1734) it was over 10 µM; with H1734 (read-out: Dose Response (uM) H1734) it was 2.57 µM; with H1118, over 10 µM. Further, the IC50 is over 10 µM in the experiment on H1650 (NCI-H1650, 48 h, H1650, 12 point doubling dilution 10 uM to 5 nM, 48 h treatment, alamar blue additional 48 h, read-out: IC50 H1650); 4.47 µM with H1650 (NCI-H1650, dose response 10 M to 5 nM, IC50, read-out: Dose Response (uM) H1650); 9.19 µM in the experiment on H2030 (NCI-H2030, 48 h, H2030, 12 point doubling dilution 10 uM to 5 nM, 48 h treatment, alamar blue additional 48 h, read-out: IC50 H2030); 3.04 µM in the experiment with H2030 (NCI-H2030, dose response 10 M to 5 nM, IC50, read-out: Dose Response (uM) H2030).
